US20220081422A1 (Janssen Biotech, Inc., priority 2019, published 2022)

Legend:
[1] = system: MOLM-13 cells; assay: MOLM-13 cellular assay (CellTiter-Glo cell viability); type: cell-based; details: 72 hours exposure, cell viability by CellTiter-Glo
In short: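 Cells seeded at 5,000/well and exposed to graded compound concentrations for 72 h at 37° C, 5% CO2 immediately after seeding. Viability read by CellTiter-Glo luminescence.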

[2] = target: T1, human DHODH (Homo sapiens, UniProt Q02127); assay: DHODH enzymatic assay (DCIP absorbance, end-point); type: biochemical; details: purified human DHODH, DCIP as final electron acceptor, end-point mode; read-out: hDHODH IC50
T1 construct: purchased Proteros PR-0044
T1 sequence (Q02127 whole entry): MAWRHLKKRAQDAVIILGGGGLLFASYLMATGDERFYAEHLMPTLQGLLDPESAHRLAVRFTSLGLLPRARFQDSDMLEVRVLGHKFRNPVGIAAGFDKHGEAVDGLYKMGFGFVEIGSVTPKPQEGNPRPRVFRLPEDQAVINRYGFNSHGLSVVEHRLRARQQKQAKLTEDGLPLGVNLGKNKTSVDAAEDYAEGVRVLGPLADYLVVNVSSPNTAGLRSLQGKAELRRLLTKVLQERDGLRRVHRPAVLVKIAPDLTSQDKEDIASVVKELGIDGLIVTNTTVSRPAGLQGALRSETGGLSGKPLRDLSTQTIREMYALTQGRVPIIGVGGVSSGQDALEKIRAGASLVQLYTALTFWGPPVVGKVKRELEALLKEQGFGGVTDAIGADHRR
In short: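 Purified human DHODH; end-point absorbance of DCIP reduction as terminal electron acceptor. Reaction started with substrate mix of 20 mM DHO, 5 mM CoQ6, 1 mM DCIP (substrate-solution concentrations) in […] pH 7.5, 150 mM NaCl, 0.5 mM EDTA, 0.1% Triton X-100.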

Structure (SMILES)	IC50 ([1]; Homo sapiens, MOLM-13, 72 h) [nM]	IC50 [2] [nM]	IC50 [1] [nM]
C=C(C)C1CN(c2c(F)cccc2Cl)C(=O)c2ccc(-n3nc(CO)n(CC)c3=O)cc21 (racemic) [Example 11, Racemic-2-(2-Chloro-6-fluorophenyl)-6-(4-ethyl-3-(hydroxymethyl)-5-oxo-4,5-dihydro-1H-1,2,4-triazol-1-yl)-4-(prop-1-en-2-yl)-3,4-dihydroisoquinolin-1(2H)-one]	1	1.7	–
CCn1c(CO)nn(-c2cc3c(cc2F)C(=O)N(c2c(C)cnc(OC)c2Cl)CC3C(C)C)c1=O (single isomer, unassigned) [Example 67, (R *)-2-(3-Chloro-2-methoxy-5-methylpyridin-4-yl)-6-(4-ethyl-3-(hydroxymethyl)-5-oxo-4,5-dihydro-1H-1,2,4-triazol-1-yl)-7-fluoro-4-isopropyl-3,4-dihydroisoquinolin-1(2H)-one]	–	> 100	351
CCn1c(CO)nn(-c2nc3c(cc2F)C(=O)N(c2c(F)cccc2Cl)CN3C2CCC2)c1=O [Example 7, 3-(2-chloro-6-fluorophenyl)-1-cyclobutyl-7-(4-ethyl-3-(hydroxymethyl)-5-oxo-4,5-dihydro-1H-1,2,4-triazol-1-yl)-6-fluoro-2,3-dihydropyrido[2,3-d]pyrimidin-4(1H)-one]	1.7	2.6	–
CCCN1CN(c2c(F)cccc2Cl)C(=O)c2cc(F)c(-n3nc(CO)n(CC)c3=O)cc21 [Example 22, 3-(2-Chloro-6-fluorophenyl)-7-(4-ethyl-3-(hydroxymethyl)-5-oxo-4,5-dihydro-1H-1,2,4-triazol-1-yl)-6-fluoro-1-propyl-2,3-dihydroquinazolin-4(1H)-one]	5.49	4	–
C=C(C)C1CN(c2ccccc2C)C(=O)c2cc(F)c(-n3nc(CO)n(CC)c3=O)cc21 (single isomer, unassigned) [Example 42, (R *)-6-(4-Ethyl-3-(hydroxymethyl)-5-oxo-4,5-dihydro-1H-1,2,4-triazol-1-yl)-7-fluoro-4-(prop-1-en-2-yl)-2-(o-tolyl)-3,4-dihydroisoquinolin-1(2H)-one]	–	4	6.79
C=C(C)C1CN(c2c(C)n[nH]c2Cl)C(=O)c2cc(F)c(-n3nc(CO)n(CC)c3=O)cc21 (single isomer, unassigned) [Example 48, (S*)-2-(5-Chloro-3-methyl-1H-pyrazol-4-yl)-6-(4-ethyl-3-(hydroxymethyl)-5-oxo-4,5-dihydro-1H-1,2,4-triazol-1-yl)-7-fluoro-4-(prop-1-en-2-yl)-3,4-dihydroisoquinolin-1(2H)-one]	–	20	0.834
CCn1c(CO)nn(-c2nc3c(cc2F)C(=O)N(c2c(F)cccc2Cl)CN3C2CCOCC2)c1=O [Example 6, 3-(2-Chloro-6-fluorophenyl)-7-(4-ethyl-3-(hydroxymethyl)-5-oxo-4,5-dihydro-1H-1,2,4-triazol-1-yl)-6-fluoro-1-(tetrahydro-2H-pyran-4-yl)-2,3-dihydropyrido[2,3-d]pyrimidin-4(1H)-one]	50	57	–
CCCCN1CN(c2c(F)cccc2Cl)C(=O)c2cc(F)c(-n3nc(CO)n(CC)c3=O)cc21 [Example 20, 1-Butyl-3-(2-chloro-6-fluorophenyl)-7-(4-ethyl-3-(hydroxymethyl)-5-oxo-4,5-dihydro-1H-1,2,4-triazol-1-yl)-6-fluoro-2,3-dihydroquinazolin-4(1H)-one]	10.2	5	–
CCn1c(CO)nn(-c2cc3c(cc2F)C(=O)N(c2c(F)cccc2Cl)C(C)(C)N3C(C)C)c1=O [Example 3, 3-(2-Chloro-6-fluorophenyl)-7-(4-ethyl-3-(hydroxymethyl)-5-oxo-4,5-dihydro-1H-1,2,4-triazol-1-yl)-6-fluoro-1-isopropyl-2,2-dimethyl-2,3-dihydroquinazolin-4 (1H)-one]	440	1040	–
CCn1c(CO)nn(-c2cc3c(cc2F)C(=O)N(c2c(F)cccc2Cl)CN3CC2CCCCC2)c1=O [Example 21, 3-(2-Chloro-6-fluorophenyl)-1-(cyclohexylmethyl)-7-(4-ethyl-3-(hydroxymethyl)-5-oxo-4,5-dihydro-1H-1,2,4-triazol-1-yl)-6-fluoro-2,3-dihydroquinazolin-4(1H)-one]	22.9	6	–
CC[C@H](C)N1CN(c2c(F)cccc2Cl)C(=O)c2cc(F)c(-n3nc(CO)n(CC)c3=O)nc21 [Example 31, (S)-1-(sec-Butyl)-3-(2-chloro-6-fluorophenyl)-7-(4-ethyl-3-(hydroxymethyl)-5-oxo-4,5-dihydro-1H-1,2,4-triazol-1-yl)-6-fluoro-2,3-dihydropyrido[2,3-d]pyrimidin-4(1H)-one]	0.962	0.7	–
C=C(C)[C@@H]1CN(c2c(C)cnc(OC)c2Cl)C(=O)c2cc(F)c(-n3nc(CO)n(CC)c3=O)cc21 (single isomer, unassigned; atropisomer 1) [Example 62, Atropisomer 1, (S*)-2-(3-Chloro-2-methoxy-5-methylpyridin-4-yl)-6-(4-ethyl-3-(hydroxymethyl)-5-oxo-4,5-dihydro-1H-1,2,4-triazol-1-yl)-7-fluoro-4-(prop-1-en-2-yl)-3,4-dihydroisoquinolin-1(2H)-one]	–	2	0.793
CCn1c(CO)nn(-c2cc3c(cc2F)C(=O)N(c2c(F)cccc2Cl)CN3[C@@H](C)C2CCCCC2)c1=O [Example 17, (S)-3-(2-Chloro-6-fluorophenyl)-1-(1-cyclohexylethyl)-7-(4-ethyl-3-(hydroxymethyl)-5-oxo-4,5-dihydro-1H-1,2,4-triazol-1-yl)-6-fluoro-2,3-dihydroquinazolin-4(1H)-one]	< 1.69	0.1	–

Now from value to molecule:

IC50 ([1]; Homo sapiens, MOLM-13, 72 h) [nM]	IC50 [2] [nM]	IC50 [1] [nM]	Structure (SMILES)
14.5	6	–	CCC(C)C1CN(c2c(F)cccc2Cl)C(=O)c2cc(F)c(-n3nc(CO)n(CC)c3=O)cc21 (single isomer, unassigned) [Example 70, (S*)-4-((RS)-sec-butyl)-2-(2-chloro-6-fluorophenyl)-6-(4-ethyl-3-(hydroxymethyl)-5-oxo-4,5-dihydro-1H-1,2,4-triazol-1-yl)-7-fluoro-3,4-dihydroisoquinolin-1(2H)-one]
–	40	52.9	C=C(C)C1CN(c2cc(C)ccc2F)C(=O)c2cc(F)c(-n3nc(CO)n(CC)c3=O)cc21 (single isomer, unassigned) [Example 40, (R *)-6-(4-Ethyl-3-(hydroxymethyl)-5-oxo-4,5-dihydro-1H-1,2,4-triazol-1-yl)-7-fluoro-2-(2-fluoro-5-methylphenyl)-4-(prop-1-en-2-yl)-3,4-dihydroisoquinolin-1(2H)-one]
6.98	7	–	C=C(C)C1CN(c2c(C)ccnc2Cl)C(=O)c2cc(F)c(-n3nc(CO)n(CC)c3=O)cc21 (racemic) [Example 45, Racemic-2-(2-chloro-4-methylpyridin-3-yl)-6-(4-ethyl-3-(hydroxymethyl)-5-oxo-4,5-dihydro-1H-1,2,4-triazol-1-yl)-7-fluoro-4-(prop-1-en-2-yl)-3,4-dihydroisoquinolin-1(2H)-one]
5.96	9	–	CCn1c(CO)nn(-c2cc3c(cc2F)C(=O)N(c2c(C)cnc(OC)c2Cl)CN3C(C)C)c1=O [Example 32, 3-(3-Chloro-2-methoxy-5-methylpyridin-4-yl)-7-(4-ethyl-3-(hydroxymethyl)-5-oxo-4,5-dihydro-1H-1,2,4-triazol-1-yl)-6-fluoro-1-isopropyl-2,3-dihydroquinazolin-4(1H)-one]
< 1.69	0.3	–	CCC[C@H](C)N1CN(c2c(F)cccc2Cl)C(=O)c2cc(F)c(-n3nc(CO)n(CC)c3=O)cc21 [Example 15, (S)-3-(2-Chloro-6-fluorophenyl)-7-(4-ethyl-3-(hydroxymethyl)-5-oxo-4,5-dihydro-1H-1,2,4-triazol-1-yl)-6-fluoro-1-(pentan-2-yl)-2,3-dihydroquinazolin-4(1H)-one]
7.2	20	–	CCn1c(CO)nn(-c2ccc3c(c2)C(C(C)C)CN(c2c(F)cccc2Cl)C3=O)c1=O (racemic) [Example 13, Racemic-2-(2-Chloro-6-fluorophenyl)-6-(4-ethyl-3-(hydroxymethyl)-5-oxo-4,5-dihydro-1H-1,2,4-triazol-1-yl)-4-isopropyl-3,4-dihydroisoquinolin-1(2H)-one]
1.7	11	–	CCn1c(CO)nn(-c2nc3c(cc2F)C(=O)N(c2c(F)cccc2Cl)CN3C2CC2)c1=O [Example 9, 3-(2-Chloro-6-fluorophenyl)-1-cyclopropyl-7-(4-ethyl-3-(hydroxymethyl)-5-oxo-4,5-dihydro-1H-1,2,4-triazol-1-yl)-6-fluoro-2,3-dihydropyrido[2,3-d]pyrimidin-4(1H)-one]
